Some results are limits rather than exact numbers.

Chain of PolQ ATPase enzyme (1-894) (O75417 1-894): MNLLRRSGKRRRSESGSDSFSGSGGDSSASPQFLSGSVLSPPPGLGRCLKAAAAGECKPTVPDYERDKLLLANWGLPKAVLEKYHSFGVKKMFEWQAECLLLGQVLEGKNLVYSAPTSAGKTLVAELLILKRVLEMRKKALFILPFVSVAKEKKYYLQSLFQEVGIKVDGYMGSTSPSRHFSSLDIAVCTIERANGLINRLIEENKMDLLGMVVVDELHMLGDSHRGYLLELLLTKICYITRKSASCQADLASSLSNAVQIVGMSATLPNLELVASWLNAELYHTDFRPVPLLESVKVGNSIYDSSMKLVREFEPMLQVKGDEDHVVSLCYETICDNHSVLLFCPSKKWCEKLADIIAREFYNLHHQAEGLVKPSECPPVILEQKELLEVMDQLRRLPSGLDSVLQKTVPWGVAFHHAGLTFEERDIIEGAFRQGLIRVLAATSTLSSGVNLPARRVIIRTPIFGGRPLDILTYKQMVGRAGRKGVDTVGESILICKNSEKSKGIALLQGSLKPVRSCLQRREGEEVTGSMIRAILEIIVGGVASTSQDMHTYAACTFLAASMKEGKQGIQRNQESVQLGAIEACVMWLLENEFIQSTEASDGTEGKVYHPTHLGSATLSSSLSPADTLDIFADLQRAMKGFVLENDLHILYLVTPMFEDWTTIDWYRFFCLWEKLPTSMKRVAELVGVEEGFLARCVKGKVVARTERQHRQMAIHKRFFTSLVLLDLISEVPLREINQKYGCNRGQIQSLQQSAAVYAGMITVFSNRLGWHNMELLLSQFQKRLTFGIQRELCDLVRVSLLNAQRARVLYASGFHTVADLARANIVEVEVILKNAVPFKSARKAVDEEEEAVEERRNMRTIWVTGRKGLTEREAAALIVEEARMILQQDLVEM

This assay addresses PolQ ATPase enzyme (1-894) (Homo sapiens (Human), UniProt O75417). The assay is described as follows: Polθ ATPase enzymatic assay (0.5 nM enzyme concentration), ADP-Glo. In kind it is biochemical. Particulars: average IC50; 0.5 nM PolQ ATPase enzyme (1-894). In outline:
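Enzyme (0.5 nM) pre-incubated 15 min at rt with 10-point inhibitor series in 50 mM Tris pH 7.5, 10% glycerol, 5 mM DTT, 10 mM MgCl2, 0.1 mg/ml BSA; reaction started with 20 nM fork DNA and 100 μM ATP, run 180 min at rt. ADP-Glo luminescence; IC50 from 4-parameter variable-slope fit.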
(In ADP-Glo the light output rises with the ADP produced.)
By IC50 is commonly meant the concentration that inhibits the measured activity by half. A high value points to lower potency. For the molecule `COc1cnc(C(F)F)cc1-c1cc(-n2c(F)cccc2=O)ncc1C(=O)Nc1nnc(C#CC2CC2)s1` [Compound 461], the IC50 was below 0.25 nM.

`COc1cnc(C(F)F)cc1-c1cc(-c2nnc(C)o2)ccc1C(=O)Nc1nnc(C#Cc2cc(C)[nH]n2)s1` [Compound 153] had an IC50 below 0.25 nM.

`COc1cnc(C(F)F)cc1-c1cc(C[S+](C)[O-])ccc1C(=O)Nc1nnc(C#CC2CC2)s1` (stereo not shown) [Compound 260] had an IC50 of 2 nM.

In the case of `COc1cnc(C(F)F)cc1-c1cc(N2CCN(C(C)=O)CC2=O)ncc1C(=O)Nc1nnc(C#CC2CC2)s1` [Compound 357], the IC50 is below 0.25 nM.

`COc1ccc(C(F)(F)F)cc1-c1cc(CC(=O)N(C)C)ncc1C(=O)Nc1nnc(C#CC2CC2)s1` [Compound 33, N-(5-(cyclopropylethynyl)-1,3,4-thiadiazol-2-yl)-6-(2-(dimethylamino)-2-oxoethyl)-4-(2-methoxy-5-(trifluoromethyl)phenyl)nicotinamide] yielded an IC50 below 0.25 nM.

On to `COc1cnc(C(F)F)cc1-c1cc(C(=O)N(C)C)ccc1C(=O)Nc1ncc(C#CC2CC2)s1` [Compound 257], for which inhibition was half-maximal at 26 nM (IC50).

As for `O=C(Nc1nnc(C#CC2CC2)s1)c1cnc(-n2ncccc2=O)cc1-c1cc(C(F)F)ncc1Cl` [Compound 463], the IC50 is below 0.25 nM.

`COc1cnc(C(F)F)cc1-c1cc(CC#N)ccc1C(=O)Nc1nnc(C#CC2CC2)s1` [Compound 112, 4-(cyanomethyl)-N-(5-(cyclopropylethynyl)-1,3,4-thiadiazol-2-yl)-2-(2-(difluoromethyl)-5-methoxypyridin-4-yl)benzamide] registered a half-inhibitory concentration (IC50) below 0.25 nM.

With `O=C(Nc1nnc(C#CC2CC2)s1)c1cc2ncnn2cc1-c1cc(Cl)ncc1OC(F)F` [Compound 50], the IC50 amounted to 2.4 nM.

Take `COc1cnc(C(F)F)cc1-c1cc(C2CCN(C)C2=O)ccc1C(=O)Nc1nnc(C#CC2CC2)s1` (stereo not shown) [Compound 282]: the half-maximal inhibitory concentration (IC50) was determined as 0.26 nM.

For `COc1cnc(C(F)F)cc1-c1cc(N2CCCCC2=O)ccc1C(=O)Nc1ncc(C#CC2CC2)s1` [Compound 209], the IC50 is 0.67 nM.

`COc1ncc(Cl)cc1-c1cnccc1C(=O)Nc1nnc(C#CC2CC2)s1` [Compound 344] gave an IC50 of 4.3 nM.

As to `COc1cnc(C(F)F)cc1-c1cc(-c2ccn(C)n2)ncc1C(=O)Nc1ncc(C#CC2CC2)s1` [Compound 117, N-(5-(cyclopropylethynyl)thiazol-2-yl)-2′-(difluoromethyl)-5′-methoxy-6-(1-methyl-1H-pyrazol-3-yl)-[4,4′-bipyridine]-3-carboxamide], inhibition was half-maximal at 2 nM (IC50).

Turning to `Cn1cc(-c2cc(Cl)ncc2OC(F)F)c(C(=O)Nc2nnc(C#CC3CC34CC4)s2)cc1=O` (stereo not shown) [Compound 320], the IC50 was below 0.25 nM.

As to `COc1cnc(C(F)F)cc1-c1cc(CC(=O)N2CC(C)(O)C2)ccc1C(=O)Nc1nnc(C#CC2CC2)s1` [Compound 206], the IC50 was below 0.25 nM.

`[2H]C([2H])([2H])N(C(=O)C1CCOC1)c1ccc(C(=O)Nc2nnc(C#CC3CC3)s2)c(-c2cc(C(F)F)ncc2OC)c1` (stereo not shown) [Compound 229] returned an IC50 of 1.4 nM.

`COc1ccc(C(F)F)cc1-c1cnccc1C(=O)Nc1nnc(C#CC2CC2)s1` [Compound 56] registered an IC50 below 0.25 nM.

The molecule `COc1cnc(Cl)cc1-c1cnccc1C(=O)Nc1nnc(C#Cc2cc(C)[nH]n2)s1` [Compound 28, 3-(2-chloro-5-methoxy-4-pyridyl)-N-[5-[2-(5-methyl-1H-pyrazol-3-yl)ethynyl]-1,3,4-thiadiazol-2-yl]pyridine-4-carboxamide] came in with an IC50 of 0.36 nM.

`COc1cnc(C(F)F)cc1-c1cc(C#CCN2CCNC2=O)ccc1C(=O)Nc1nnc(C#CC2CC2)s1` [Compound 197]: the IC50 was below 0.25 nM.

`COc1cnc(C(F)F)cc1-c1cnccc1C(=O)Nc1nnc([C@@H]2C[C@H]2c2ccc(C#N)cc2)s1` [Compound 303]: it took 1.1 nM to reach half-maximal inhibition (IC50).

The molecule `CN(C)C(=O)Cn1cc(-c2cc(F)ccc2Cl)c(C(=O)Nc2nnc(C#CC3CC3)s2)cc1=O` [Compound 66] came in with an IC50 of 0.6 nM.

Take `COc1cnc(C(F)F)cc1-c1cc(N2CCOC[C@H]2C)ncc1C(=O)Nc1nnc(C#CC2CC2)s1` [Compound 379]: the IC50 came to 18 nM.

With `COc1cnc(C(F)F)cc1-c1cc(-c2cnn(CC#N)c2)ncc1C(=O)Nc1nnc(C#CC2CC2)s1` [Compound 419], inhibition was half-maximal at 0.72 nM (IC50). This IC50 lies about 25-fold lower than the previous one.

`COc1cnc(C(F)F)cc1-c1cc(N(C)Cc2cnn(C)c2)ccc1C(=O)Nc1nnc(C#CC2CC2)s1` [Compound 136] had an IC50 of 8.5 nM. Compared with the last molecule, the IC50 is about 12-fold higher.

For `COc1cnc(Cl)cc1-c1cn2c(C(N)=O)cnc2cc1C(=O)Nc1nnc(C#CC2CC2)s1` [Compound 342], the IC50 amounted to 13 nM.

`C#Cc1cc(-c2cc(C(F)F)ncc2OC)c(C(=O)Nc2nnc(C#CC3CC3)s2)cn1` [Compound 269] yielded an IC50 of 0.38 nM.

`COc1cnc(C(F)F)cc1-c1cc(N2CCC3CCC3C2=O)ncc1C(=O)Nc1nnc(C#CC2CC2)s1` (stereo not shown) [Compound 443] gave an IC50 below 0.25 nM.

`COc1cnc(C(F)F)cc1-c1cc(-c2nccn2C)ncc1C(=O)Nc1nnc(C#CC2CC2)s1` [Compound 404]: the IC50 was below 0.25 nM.

In turn, `COc1cnc(C(F)F)cc1-c1cc(C#CC2(O)CCOCC2)ccc1C(=O)Nc1nnc(C#CC2CC2)s1` [Compound 283] came in with a concentration for half-maximal inhibition (IC50) below 0.25 nM.

On to `COc1cnc(C(F)F)cc1-c1cc(-c2oc(C)nc2C)ncc1C(=O)Nc1nnc(C#CC2CC2)s1` [Compound 409], for which the IC50 was below 0.25 nM.

The molecule `COc1cnc(C(F)F)cc1-c1cc(-n2cc(N)c(C)cc2=O)ncc1C(=O)Nc1nnc(C#CC2CC2)s1` [Compound 454] displayed an IC50 of 1.1 nM. In other words, the single-digit nanomolar range.

`COc1cnc(C)cc1-c1cnccc1C(=O)Nc1nnc(C#Cc2cc(C)[nH]n2)s1` [Compound 85] returned an IC50 of 1.1 nM.

`COc1cnc(C(F)F)cc1-c1cc(N2CC(C)(C)CC2=O)ncc1C(=O)Nc1nnc(C#CC2CC2)s1` [Compound 380] gave an IC50 of 11 nM.

Molecule `COc1cnc(C(F)F)cc1-c1cc(-c2cn(C)cn2)ccc1C(=O)Nc1nnc(C#CC2CC2)s1` [Compound 201] registered an IC50 below 0.25 nM.

For `COc1cnc(Cl)nc1-c1cnccc1C(=O)Nc1nnc(C#CC2CC2)s1` [Compound 68], the IC50 was 1.6 nM.

Molecule `COc1cnc(C(F)F)cc1-c1cc(-c2ccn(C)n2)ccc1C(=O)Nc1nnc(C#CC2CC2)s1` [Compound 280] had an IC50 below 0.25 nM.

With `COc1cnc(Cl)nc1-c1cc(-c2nnc(C)o2)ccc1C(=O)Nc1nnc(C#CC2CC2)s1` [Compound 402], half-maximal inhibition (IC50) required 0.88 nM.

Consider `COc1cnc(C(F)F)cc1-c1cc(N2CCC(C(C)(C)C)CC2=O)ncc1C(=O)Nc1nnc(C#CC2CC2)s1` (stereo not shown) [Compound 444], for which the IC50 was below 0.25 nM.

`[2H]C([2H])([2H])Oc1cnc(C(F)F)cc1-c1cc(-c2nnc(C)o2)ccc1C(=O)Nc1nnc(C#CC2CC2)s1` [Compound 406] gave a 50% inhibitory concentration (IC50) of 2.8 nM.

Regarding `COc1cnc(C(F)F)cc1-c1cc(N2CCN(C)C(=O)C2)ncc1C(=O)Nc1nnc(C#CC2CC2)s1` [Compound 128], the IC50 came out at 4 nM.

In turn, `COc1cnc(C(F)F)cc1-c1cc(C#CC(C)(C)O)ncc1C(=O)Nc1nnc(C#CC2CC2)s1` [Compound 253] showed a half-maximal inhibitory concentration (IC50) below 0.25 nM.

For `COc1cnc(C(F)F)cc1-c1cc(CC(=O)N2CC(F)(F)C2)ncc1C(=O)Nc1ncc(C#CC2CC2)s1` [Compound 447], the IC50 was below 0.25 nM.

Turning to `COc1cnc(Cl)cc1-c1cc(C(N)=O)ncc1C(=O)Nc1nnc(C#CC2CC2)s1` [Compound 73], half-maximal inhibition (IC50) required 0.42 nM.

For the origin of these results see patent US20250026748A1, “N-(5-SUBSTITUTED-[(1,3,4-THIADIAZOLYL) OR (THIAZOLYL)])(SUBSTITUTED)CARBOXAMIDE COMPOUNDS AND USE THEREOF FOR INHIBITING HUMAN POLYMERASE THETA” (Repare Therapeutics Inc., priority 2021, published 2025).
